“Also recorded” adds a separate entry of the source.
Assays:
[1] = tested on: IL2-ks cells (cells expressing IL-2 and an inducible kill switch); assay: IL-2 ELISA of IL2-ks cell supernatant after AP1903; format: cell-based
Description: FIG. 2 is a graph of mIL-2 concentration (pg/mL) of the two cell populations of FIG. 1, the first population (right) not having been exposed to AP1903 and the second population (left) less than 24 hours after exposure to 100 nM AP1903.
FIG. 7A and FIG. 7B are graphs of IL-2 concentration (pg/mL) over time of four alginate-encapsulated, cytokine-producing, kill switch-inducible cell populations exposed to 0 nM, 10 nM, 100 nM, and 1000 nM of small molecule kill switch inducer AP1903.
(§1) Images were acquired at 20× magnification.

[2] = tested on: IL2-ks cells (cells expressing IL-2 and an inducible kill switch); assay: Bright field imaging of IL2-ks cells after AP1903; format: cell-based; conditions: 100 nM AP1903, 18 hours after administration
Source text: as §1

RPE-mIL12-ks cells [3] = assay: cells; conditions: 24 h, read-out: cell death
Description: (§2) Images of RPE-mIL 12-ks cells via the microscope 24 hours after 0 nM (left) or 10 nM AP1903 (right) administration. […] Cell viability measured after lysing encapsulated RPE-IL12-ks via cell counter 24 hours post administration (n=3).
(§3) FIG. 9A is series of two annotated photographs of two populations of cytokine-producing, kill switch-inducible cells, the first population (left) not having been exposed to small molecule kill switch inducer AP1903, and the second population (right) 24 hours after exposure to 10 nM AP1903. FIG. 9B is the administration of different concentrations of CID (AP1903) in mIL 12 ks cells in a 24-well plate for 24 hours. […] FIG. 9C is the validation of AP1903 treatment in inducing encapsulated cell death in mice. The inventors implant 50 mIL12 ks capsules in each mouse and administrate half of the mice with AP1903 right after implantation surgeries. Euthanize all the mice after 24 hours, retrieve capsules and lysis capsules for measuring cell viability.

[4] = tested on: encapsulated IL12-ks cells; assay: AP1903-induced encapsulated cell death of mIL12 ks capsules in mice; format: in vivo
Source text: FIG. 9A is an in vitro assay. […] FIG. 9B is an in vitro assay. […] FIG. 9C is an in vivo assay.

[5] = tested on: encapsulated IL2-ks cells; assay: Viability of explanted IL2-ks capsules with or without intraperitoneal AP1903
[6] = tested on: Encapsulated IL2-ks cells; assay: mIL-2 ELISA of capsule supernatant of encapsulated IL2-ks cells after AP1903; format: cell-based; conditions: 10 nM, 100 nM or 1000 nM AP1903, alginate-encapsulated cells
Description: FIG. 3A and FIG. 3B are graphs of mIL-2 concentration (pg/mL) over time of four alginate-encapsulated, cytokine-producing, kill switch-inducible cell populations exposed to 0 nM, 10 nM, 100 nM, and 1000 nM of small molecule kill switch inducer AP1903.
as §1

RPE-mIL12-ks cells [7] = conditions: in vitro and in vivo assays of FIGS. 9A-C
Description: as §2, §3

## CC[C@H](C(=O)N1CCCC[C@H]1C(=O)O[C@H](CCc1ccc(OC)c(OC)c1)c1cccc(OCC(=O)NCCNC(=O)COc2cccc([C@@H](CCc3ccc(OC)c(OC)c3)OC(=O)[C@@H]3CCCCN3C(=O)[C@@H](CC)c3cc(OC)c(OC)c(OC)c3)c2)c1)c1cc(OC)c(OC)c(OC)c1 [AP1903]
[1]; 10 nM, 100 nM or 1000 nM AP1903, 3 hours after administration
  IL-2 concentration from cell supernatant: significant reduction in cytokine production
[1]; 100 nM AP1903, 18 hours after administration, n=3 wells
  mIL-2 concentration from cell supernatant: significant reduction in cytokine production; also recorded: decreased mIL-2 production
[2]
  cell death (bright field images): induced cell death
RPE-mIL12-ks cells [3]
  cytotoxicity at 0.01 µM: 99%
[4]; 0.4 mg/mL AP1903, healthy mice, n=3
  time for encapsulated IL12-ks cells to respond to AP1903: less than 24 hours
[4]; AP1903 right after implantation of 50 capsules, 24 hours, compared to control mice
  cell viability of retrieved capsules: decreased cell viability
[5]; 0.4 mg/mL AP1903, healthy mice
  time for encapsulated IL2-ks cells to respond to AP1903: less than 16 hours
[5]; Mus musculus, ip, read-out: viability of explanted capsules (live)
  viability at 400 µg/mL: < 10%
[6]
  mIL-2 concentration over time from capsule supernatant: IL-2 production was reduced; also recorded: decreased mIL-2 production
RPE-mIL12-ks cells [7]
  induction of cell death in RPE-mIL 12-ks cells: highly effective at inducing cell death
